In patent EP4603105A1, “PHARMACEUTICAL COMPOSITION CONTAINING CYCLIC COMPOUND HAVING SELECTIVE KRAS INHIBITORY EFFECT AGAINST HRAS AND NRAS” (CHUGAI SEIYAKU KABUSHIKI KAISHA, priority 2022, dated 2024):
Where a SMILES comes first, the peptide text is derived from it. Bridges are numbered along the chain shown (N, C = ends). [ ]: non-standard residue; d: D form. The star is where a group is joined. hPhe(3-Cl-4-CF3) = N[C@@H](CCc1ccc(C(F)(F)F)c(Cl)c1)C(=O)O; NMeGly(cPent) = CN[C@H](C(=O)O)C1CCCC1; NMeF = CN[C@@H](Cc1ccccc1)C(=O)O; NMeD = CN[C@@H](CC(=O)O)C(=O)O; NMeL = CN[C@@H](CC(C)C)C(=O)O; Morpholide = C1CN(*)CCO1; NMeA = CN[C@@H](C)C(=O)O; Ac5c = NC1(C(=O)O)CCCC1; Aze = O=C(O)[C@@H]1CCN1; Sar = CNCC(=O)O

Assays:
[1] = biological target: GDP-bound NRAS wild-type protein (Homo sapiens, UniProt P01111); experiment: Binding to NRAS by surface plasmon resonance (SPR), KD and KD ratio to KRAS
Summary of the method: (§1)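 Measured at 30°C: SPR with GDP-loaded, E. coli-expressed biotin-Avi RAS captured (~100–300 RU), ascending 75 s compound injections, HBS pH 7.4 with GDP, MgCl2, 4% DMSO. KD from 1:1 fit.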

[2] = biological target: HRAS wild-type protein (Homo sapiens, UniProt P01112); experiment: Binding to HRAS by surface plasmon resonance (SPR), KD and KD ratio to KRAS
Summary of the method: as §1

[3] = test system: human lung cancer strain NCI-H441; format: cell-based
Summary of the method: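 Signal came from […] measured per well once the reagent was added. Beforehand, cells were cultured at 37°C and 5% carbon dioxide on a compound series serially diluted in dimethyl sulfoxide.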

[4] = ratio of KD for GDP-bound NRAS wild-type protein to KD for KRAS
[5] = ratio of KD for HRAS wild-type protein to KD for KRAS

Chain of GDP-bound NRAS wild-type protein (P01111 whole entry): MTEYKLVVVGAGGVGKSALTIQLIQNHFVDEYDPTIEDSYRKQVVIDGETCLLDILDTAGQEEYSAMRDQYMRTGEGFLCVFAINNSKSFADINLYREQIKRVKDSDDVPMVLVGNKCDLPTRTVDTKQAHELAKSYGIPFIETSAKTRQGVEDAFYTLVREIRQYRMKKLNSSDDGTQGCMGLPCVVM
Chain of HRAS wild-type protein (P01112 whole entry): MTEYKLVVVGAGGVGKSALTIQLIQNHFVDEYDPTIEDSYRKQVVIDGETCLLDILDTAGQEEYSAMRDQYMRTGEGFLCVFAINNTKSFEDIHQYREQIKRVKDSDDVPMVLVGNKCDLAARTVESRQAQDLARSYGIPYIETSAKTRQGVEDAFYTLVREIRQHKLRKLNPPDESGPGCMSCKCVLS

| Compound | NRAS /KRAS [1, 4] | HRAS /KRAS [2, 5] | IC50 [3] [nM] | other results |
| --- | --- | --- | --- | --- |
| CC[C@H](C)[C@@H]1NC(=O)[C@H](CC(C)C)N(C)C(=O)C[C@@H](C(=O)N2CCOCC2)N(C)C(=O)[C@H](C2CCCC2)N(C)C(=O)C2(CCCC2)NC(=O)[C@@H]2CCCN2C(=O)[C@H](CCc2ccc(C(F)(F)F)c(Cl)c2)NC(=O)CN(C)C(=O)[C@H](Cc2ccccc2)N(C)C(=O)[C@@H]2CCN2C(=O)[C@H](C)N(C)C1=O [PP0011] ([NMeL]I[NMeA][Aze][NMeF][Sar][hPhe(3-Cl-4-CF3)]P[Ac5c][NMeGly(cPent)][NMeD]-Morpholide; lactam N-11) | C (A compound having a KD ratio of 0.1 or more and less than 3 is denoted as C) | C (A compound having a KD ratio of 0.1 or more and less than 3 is denoted as C) | 5.8 | – |
| CCO[C@@H]1C[C@H]2C(=O)NC3(CCC3)C(=O)N(C)[C@@H](C3CCCC3)C(=O)N(C)[C@H](C(=O)N(C)C)CC(=O)N(C)[C@@H](Cc3cccnc3)C(=O)N[C@@H]([C@@H](C)CC)C(=O)N(C)CC(=O)N(C)[C@H]3CCCCCN(C3=O)[C@@H](Cc3ccc(C(F)(F)F)cc3)C(=O)N(C)CC(=O)N[C@@H](CCc3cc(F)c(C(F)(F)F)c(F)c3)C(=O)N2C1 [PP0673] | – | – | 52.5 | NRAS /KRAS ([1]; ratio of the KD value with respect to GDP-bound NRAS wild-type protein to the KD value with respect to KRAS): B (a compound having 3 or more and less than 10 is denoted as B); HRAS /KRAS ([2]; ratio of the KD value with respect to HRAS wild-type protein to the KD value with respect to KRAS): B (a compound having 3 or more and less than 10 is denoted as B) |
| CCO[C@@H]1C[C@H]2C(=O)NC3(CCC3)C(=O)N(C)[C@@H](C3CCCC3)C(=O)N(C)[C@H](C(=O)N3CCOCC3)CC(=O)N(C)[C@@H](COC)C(=O)N[C@@H]([C@@H](C)CC)C(=O)N(C)CC(=O)N(C)[C@H]3CCCCCN(C3=O)[C@@H](Cc3ccc(C(F)(F)F)cc3)C(=O)N(C)CC(=O)N[C@@H](CCc3ccc(C)cc3)C(=O)N2C1 [PP0850] | B (a compound having 3 or more and less than 10 is denoted as B) | B (a compound having 3 or more and less than 10 is denoted as B) | 3090 | – |
| CCO[C@@H]1C[C@H]2C(=O)NC3(CCC3)C(=O)N(C)[C@@H](C3CCCC3)C(=O)N(C)[C@H](C(=O)N(C)CC)CC(=O)N(C)[C@@H](CC(F)F)C(=O)N[C@@H]([C@@H](C)CC)C(=O)N(C)CC(=O)N(C)[C@H]3C/C=C\CCN(C3=O)[C@@H](Cc3ccc(C(F)(F)F)cc3)C(=O)N(C)CC(=O)N[C@@H](CCc3cc(F)c(C(F)(F)F)c(F)c3)C(=O)N2C1 [PP1303] | – | – | 4.2 | NRAS /KRAS ([1]; ratio of KD with respect to GDP-bound NRAS wild-type protein to KD with respect to KRAS): AA (a compound having 20 or more is denoted as AA); HRAS /KRAS ([2]; ratio of KD with respect to HRAS wild-type protein to KD with respect to KRAS): A (a compound having 10 or more and less than 20 is denoted as A) |
| CC[C@H](C)[C@@H]1NC(=O)[C@H](CC)N(C)C(=O)C[C@@H](C)N(C)C(=O)[C@H](C2CCCC2)N(C)C(=O)C2(CCCC2)NC(=O)[C@@H]2CCCN2C(=O)[C@H](CCc2cc(F)c(C(F)(F)F)c(F)c2)NC(=O)CN(C)C(=O)[C@H](Cc2ccc(C(F)(F)F)cc2)N2CC/C=C\C[C@@H](C2=O)N(C)C(=O)CN(C)C1=O [PP1101] | B (a compound having 3 or more and less than 10 is denoted as B) | B (a compound having 3 or more and less than 10 is denoted as B) | 68.4 | – |
| CCO[C@@H]1C[C@H]2C(=O)NC3(CC(C)(C)C3)C(=O)N(C)[C@@H](C3CCCC3)C(=O)N(C)[C@H](CC)CC(=O)N(C)[C@@H](CC)C(=O)N[C@@H]([C@@H](C)CC)C(=O)N(C)CC(=O)N(C)[C@H]3C/C=C\CCN(C3=O)[C@@H](Cc3ccc(C(F)(F)F)cc3)C(=O)N(C)CC(=O)N[C@@H](CCc3cc(F)c(C(F)(F)F)c(F)c3)C(=O)N2C1 [PP1623] | – | – | 4.5 | NRAS /KRAS ([1]; ratio of KD value for GDP-bound NRAS wild-type protein to KD value for KRAS (SPR)): A (a compound having 10 or more and less than 20 is denoted as A); HRAS /KRAS ([2]; ratio of KD value for HRAS wild-type protein to KD value for KRAS (SPR)): A (a compound having 10 or more and less than 20 is denoted as A) |
